From PubChem BioAssay AID1053201 (The Scripps Research Institute Molecular Screening Center, 2014)
Calls of active or inactive are those of the source. The rule behind the calls is not given here.

System: methionyl-tRNA synthetase (Trypanosoma brucei brucei)
Assay: T. brucei MetRS enzyme inhibitors, late-stage follow-up, biochemical, radioactivity, assay provider, round 3 (AID 1053201)
Settings: recombinant T. brucei MetRS enzyme, [3H]methionine tRNA aminoacylation filter assay, 2 h, stronger effect = higher value

With `CCN(CC)C(=O)C(=O)c1cn(CC(=O)Nc2cc(Oc3ccccc3F)cc(C(F)(F)F)c2)c2ccccc12` the inhibition (at 10 µM) was 95.6% and the inhibition (inhibition, at 1 µM) was 91.9%.

`CCN(CC)C(=O)C(=O)c1cn(CCNc2cccc(C(F)(F)F)c2)c2ccccc12` was tested, and the inhibition (at 10 µM) was -18.4% (inactive) and the inhibition (inhibition, at 1 µM) was -21.5%.

With `CCN(CC)C(=O)Cc1cn(CC(=O)Nc2cccc(C(F)(F)F)c2)c2ccccc12` the inhibition (at 10 µM) was -16.7% (inactive) and the inhibition (inhibition, at 1 µM) was -13.1%.

`CCN(CC)C(=O)C(=O)c1cn(CC(=O)Nc2cc(Oc3ccc(F)cc3)cc(C(F)(F)F)c2)c2ccccc12` was tested, and the inhibition (at 10 µM) was 97.3% and the inhibition (inhibition, at 1 µM) was 93.1%.

`CCN(CC)C(=O)C(=O)c1cn(CC(=O)Nc2cc(Oc3ccc(OC)cc3)cc(C(F)(F)F)c2)c2ccccc12` was tested, and the inhibition (at 10 µM) was 94.1% and the inhibition (inhibition, at 1 µM) was 92.3%.

For `CCN(CC)C(=O)C(=O)c1cn(CCNc2cc(Oc3ccccc3)cc(C(F)(F)F)c2)c2ccccc12`, the inhibition (at 10 µM) was 8.12% (inactive) and the inhibition (inhibition, at 1 µM) was -20.2%.

In the case of `O=C(Cn1cc(C(=O)C(=O)NCc2ccccc2)c2ccccc21)Nc1cc(Oc2ccccc2)cc(C(F)(F)F)c1`, the inhibition (at 10 µM) was 47.9% (inactive) and the inhibition (inhibition, at 1 µM) was 9.14%.

With `O=C(Cc1ccc(Nc2nc3ccc(Br)cc3[nH]2)cc1)NCCc1cccs1` the inhibition (at 10 µM) was 23.3% (inactive) and the inhibition (inhibition, at 1 µM) was -10.2%.

With `CCN(CC)C(=O)C(=O)c1cn(CC(=O)Nc2cc(Oc3ccccc3OC)cc(C(F)(F)F)c2)c2ccccc12` the inhibition (at 10 µM) was 98.2% and the inhibition (inhibition, at 1 µM) was 94.7%.

With `Nc1c(Cl)ncnc1Nc1ccc(C(=O)O)cc1` the inhibition (at 10 µM) was 43.1% (inactive) and the inhibition (inhibition, at 1 µM) was -5.91%.
